Measurements: patent US20080063704A1, “Stable gabapentin compositions” (priority 2004, published 2008)

What was measured:
Assay type in all cases: physicochemical
[1] = Pre-formulation excipient compatibility study: Appearance
Excerpt: (§1) All the ingredients were passed through 20 mesh screen and blended together. The results of all the pre-formulation compatibility studies are given in Tables 25 to 39, including comparative results for the drug substance (Table 39) and UK reference product (Table 38) as controls.
(§2) Aim: To carry out preformulation excipient compatibility studies for Gabapentin capsules
(§3) Binary mixtures to be evaluated (with and without water as necessary):
(§4) 1. Drug and diluents (1:0.5)
(§5) 2. Drug and lubricants(1:0.1)
(§6) 3. Drug and solubilizer (1:0.001)
(§7) 4. Proposed formulation from the in vitro formulation trials to confirm the extent of interactions and identify suitably stable formulations.
(§8) Where humidity controls are not available a defined amount of water may be added to the samples. Storage of samples was in petridishes and in stoppered glass vials.
(§9) The following tests were performed at each interval:
(§10) The following tests were performed at 14 and 28 day intervals.

[2] = Pre-formulation excipient compatibility study: HPLC assay for related substances
Excerpt: HPLC Assay for Related Substances
as §1, §2, §3, §4, §5, §6, §7
Significant degradation is defined as
1. >0.5% w/w formation of lactam degradation product at conditions up to 40° C./75% RH.
2. Formation of other degradants at levels >0.1% w/w.
3. Greater relative instability of mixture or formulation to Gabapentin drug substance and Neurotonin capsules.
as §8, §10
3. HPLC assay for related substances

[3] = Pre-formulation excipient compatibility study: HPLC assay
Excerpt: as §1, §2, §3, §4, §5, §6, §7, §8, §9
2. HPLC assay (as for HPLC related substances assay but calibrated for gabapentin resolution rather than for related substances)

NCC1(CC(=O)O)CCCCC1 [Gabapentin]
Nil: Impurities a) Lactam content ([2]; 25° C./60% RH, 14 days) | Impurities b) Single largest individual Impurities ([2]; 25° C./60% RH, 14 days) | Impurities c) Total other Impurities ([2]; 25° C./60% RH, 14 days) | Impurities d) Total Impurities ([2]; 25° C./60% RH, 14 days) | Impurities a) Lactam content ([2]; 25° C./60% RH, 28 days) | Impurities b) Single largest individual Impurities ([2]; 25° C./60% RH, 28 days) | Impurities c) Total other Impurities ([2]; 25° C./60% RH, 28 days) | Impurities d) Total Impurities ([2]; 25° C./60% RH, 28 days) | Impurities a) Lactam content ([2]; 40° C./75% RH, 14 days) | Impurities b) Single largest individual Impurities ([2]; 40° C./75% RH, 14 days) | Impurities c) Total other Impurities ([2]; 40° C./75% RH, 14 days) | Impurities d) Total Impurities ([2]; 40° C./75% RH, 14 days) | Impurities a) Lactam content ([2]; 40° C./75% RH, 28 days) | Impurities b) Single largest individual Impurities ([2]; 40° C./75% RH, 28 days) | Impurities c) Total other Impurities ([2]; 40° C./75% RH, 28 days) | Impurities d) Total Impurities ([2]; 40° C./75% RH, 28 days) | Impurities b) Single largest individual Impurities ([2]; 50° C., 14 days) | Impurities c) Total other Impurities ([2]; 50° C., 14 days) | Impurities d) Total Impurities ([2]; 50° C., 14 days) | Impurities b) Single largest individual Impurities ([2]; 50° C., 28 days) | Impurities c) Total other Impurities ([2]; 50° C., 28 days) | Impurities d) Total Impurities ([2]; 50° C., 28 days) | Impurities a) Lactam content ([2]; Initial) | Impurities b) Single largest individual Impurities ([2]; Initial) | Impurities c) Total other Impurities ([2]; Initial) | Impurities d) Total Impurities ([2]; Initial)
White: Description ([1]; 25° C./60% RH, 3 days) | Description ([1]; 25° C./60% RH, 7 days) | Description ([1]; 25° C./60% RH, 14 days) | Description ([1]; 25° C./60% RH, 28 days) | Description ([1]; 40° C./75% RH, 3 days) | Description ([1]; 40° C./75% RH, 7 days) | Description ([1]; 40° C./75% RH, 14 days) | Description ([1]; 40° C./75% RH, 28 days) | Description ([1]; 50° C., 3 days) | Description ([1]; 50° C., 7 days) | Description ([1]; 50° C., 14 days) | Description ([1]; 50° C., 28 days) | Description ([1]; Initial)
0.004%: Impurities a) Lactam content ([2]; 50° C., 14 days) | Impurities a) Lactam content ([2]; 50° C., 28 days)
98.53%: Assay ([3]; 40° C./75% RH, 7 days)
97.79%: Assay ([3]; 40° C./75% RH, 28 days)
98.51%: Assay ([3]; 25° C./60% RH, 28 days)
98.5%: Assay ([3]; 50° C., 7 days) | Assay ([3]; 50° C., 14 days)
98.6%: Assay ([3]; 25° C./60% RH, 7 days) | Assay ([3]; 25° C./60% RH, 14 days)
99.4%: Assay ([3]; Initial)
98.1%: Assay ([3]; 50° C., 28 days)
98.4%: Assay ([3]; 40° C./75% RH, 14 days)
